Measured values reported in patent US6589942B1, “Chitosan metal complexes and method for controlling microbial growth on plants using same” (priority 1998, dated 2003).

How the values were obtained:
Format in all cases: in vivo
[1] = tested on: potato leaves; assay: toxicity to potato leaves (Example 2)
[2] = tested on: cucumber plants; assay: toxicity to cucumber plants (Example 3)
[3] = tested on: cucumber plants; assay: toxicity to cucumber plants (Example 5)
Excerpt: Controlling the Gray mold disease caused by Botrytis cinerea in cucumber plants utilizing 0.1% chitosan and metal complexes.

Measured: toxicity to the plant

O=[N+]([O-])[O-].O=[N+]([O-])[O-].[Cu+2] [CuNO3]
toxic: [1]; 25 ppm metals | [1]; 50 ppm metals | [1]; 75 ppm metals | [2]; 25 ppm metals | [2]; 50 ppm metals | [2]; 75 ppm metals | [3]; 35 ppm metals | [3]; 50 ppm metals
